One experiment deals with ddY mice. Nature of the experiment: Acetic acid writhing test in mice (analgesic effects). It is filed as in vivo. As to conditions: for ED50: Mus musculus. The method, then:
ddY mice were grown for at least 16 hours under fasting conditions while free water intake was allowed, and a solution of the test compound or a solvent was orally administered thereto (0.1 ml/10 g). As a solvent for a solution of the test compound, dimethyl sulfoxide (DMSO):Tween 80:27% hydroxypropyl-P-cyclodextrin (hereafter abbreviated to “HP-β-CD”) (1:1:8) or 27% HP-β-CD was used. A solution of 0.6% acetic acid (0.1 ml/10 g) was administered intraperitoneally 45 minutes after administration to induce a writhing reaction (i.e., a movement of stretching or arching the body). The number of the writhing reactions that had occurred for the period from 10 minutes after administration of the acetic acid solution to 10 minutes thereafter was counted, and the number of times was designated as an indicator of pain. The number of times of reactions in the group to which a solvent had been administered was designated as 100%, and the concentration of the test compound that had inhibited 50% of such reaction was designated as the ED50 value.
The compound of Reference Example 78 is disclosed in the claims of JP Patent Publication (kohyo) No. 2006-517535 A, the compounds of Reference Examples 93 and 199 are disclosed in the claims of JP Patent No. 3003148, and the compound of Reference Example 103 is disclosed in the claims of JP Patent Publication (kohyo) No. 2006-514095 A. Thus, these compounds were compared with the compounds of the present invention having similar structures in terms of analgesic effects with oral administration (Table 4) or subcutaneous administration (Table 5). Dimethyl sulfoxide (DMSO):Tween 80:27% HP-β-CD (1:1:8) or 27% HP-β-CD was used as a solvent for the test compound.
For orientation: In writhing tests, fewer writhes than in controls are read as antinociception.

In the next experiment the target is T1, COX-2 (Homo sapiens, UniProt P35354).
T1 construct: Human blood that had been sampled with the use of heparin (19 units/ml) was used; from tissue; host or cells: human whole blood (heparinised), aspirin-pretreated, stimulated with lipopolysaccharide
T1 sequence (P35354 18-604): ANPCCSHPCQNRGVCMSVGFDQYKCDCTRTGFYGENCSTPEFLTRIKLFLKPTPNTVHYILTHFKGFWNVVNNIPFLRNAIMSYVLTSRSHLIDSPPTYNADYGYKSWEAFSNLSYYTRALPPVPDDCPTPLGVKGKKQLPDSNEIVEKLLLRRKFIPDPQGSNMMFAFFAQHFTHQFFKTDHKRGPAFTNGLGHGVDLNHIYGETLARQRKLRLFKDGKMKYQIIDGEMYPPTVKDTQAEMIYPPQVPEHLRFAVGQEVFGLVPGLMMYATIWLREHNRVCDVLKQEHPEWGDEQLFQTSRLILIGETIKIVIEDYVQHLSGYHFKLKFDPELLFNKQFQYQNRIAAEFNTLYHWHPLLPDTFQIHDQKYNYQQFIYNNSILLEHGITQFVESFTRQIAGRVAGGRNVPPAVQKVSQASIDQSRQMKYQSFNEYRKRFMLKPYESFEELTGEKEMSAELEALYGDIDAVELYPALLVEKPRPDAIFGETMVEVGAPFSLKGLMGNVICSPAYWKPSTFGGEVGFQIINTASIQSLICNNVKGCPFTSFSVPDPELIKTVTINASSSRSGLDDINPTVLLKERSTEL
Nature of the experiment: Activity of inhibiting COX-2 in human blood (prostaglandin E2 after lipopolysaccharide). In kind it is cell-based. Conditions: prostaglandin E2 production. As for the experimental part: Human blood that had been sampled with the use of heparin (19 units/ml) was used. Blood was fractionated to reaction tubes in amounts of 500 μl, aspirin (12 μg/ml) was added thereto, and the resultants were incubated at 37° C. for 6 hours. Thereafter, the test compound or solvent, and lipopolysaccharide (10 μg/ml) were added, and the reaction was allowed to proceed for 18 hours. After the completion of the reaction, the supernatant (blood plasma) was recovered via centrifugation at 4° C., and the amount of prostaglandin E2 in the plasma was quantified using a kit (514010, Cayman Chemical). Dimethyl sulfoxide (DMSO) was used as a solvent for the test compound. The amount of prostaglandin E2 produced via the addition of lipopolysaccharide was designated as 100%, and the concentration of the test compound that inhibits 50% of such reaction was represented by the IC50 value.

For a further experiment, the system named is ICR mice. Nature of the experiment: Partial sciatic nerve ligation model in mice (Seltzer model), von Frey test. In kind it is in vivo. As to conditions: oral administration of 10 mg/kg; 7 days after ligation; FIG. 1. The method, then: Analgesic effects of the compound of the present invention were evaluated using the partial sciatic nerve ligation model (Seltzer models) in mice, with which neuropathic pain can be evaluated.
Models of neuropathic pain were prepared in accordance with the method of Seltzer et al. ICR mice (5-week-old, male) were put under anesthesia with sodium pentobarbital (70 mg/kg, i.p.) to expose the sciatic nerve of the femoral region of the right posterior limb, and half of the sciatic nerve was strongly and triply ligated using 8-0 silk yarn (Natsume Seisakusho, Co., Ltd.) under a microscope (this group is designated as the “ligation group”). The group that had been subjected to exposure of the sciatic nerve without ligation was designated as a sciatic nerve control group (i.e., the “sham group”). […] The von Frey tests were performed 1 hour, 2 hours, and 3 hours after the oral administration for determining the pre-values prior to the administration of the test substances, which took place 7 days after the ligation surgery of sciatic nerve, and such values were designated as the indicators of analgesic effects. Gabapentin (30 mg/kg, po) was used as a positive control. As a solvent for the test compound, 27% HP—P—CD was used.
The obtained data were processed by performing a paired t-test amongst several groups and correcting the data via Dunnett's method.
The compound of Reference Example 78 is disclosed in the claims of JP Patent Publication (kohyo) No. 2006-517535 A, the compounds of Reference Example 93 and Reference Example 199 are disclosed in the claims of JP Patent No. 3003148, and the compound of Reference Example 103 is disclosed in the claims of JP Patent Publication (kohyo) No. 2006-514095 A. Accordingly, sulfate of Reference Example 78, toluenesulfonate of Reference Example 93, the free compound of Reference Example 199, and sulfate of Reference Example 103 were used as test compounds and evaluated using mouse models of partial sciatic nerve ligation, which were similar to those used in Example 79. 27% HP-β-CD was used as a solvent for the test compounds.

A further experiment has as its target T2, COX-1 (Homo sapiens, UniProt P23219).
T2 construct: Human blood that had been sampled with the use of heparin (19 units/ml) was used; from tissue; host or cells: human whole blood (heparinised)
Nature of the experiment: Activity of inhibiting COX-1 in human blood (thromboxane B2 after ionomycin). It is filed as cell-based. As to conditions: thromboxane B2 production. The method, then: Human blood that had been sampled with the use of heparin (19 units/ml) was used. Blood was fractionated to reaction tubes in amounts of 500 μl, the test compound or solvent was added thereto, and the resultants were incubated at 37° C. for 60 minutes. Dimethyl sulfoxide (DMSO) was used as a solvent for the test compound. Thereafter, ionomycin (30 nM) was added, and the reaction was allowed to proceed for 30 minutes. After the completion of the reaction, the supernatant (blood plasma) was recovered via centrifugation at 4° C., and the amount of thromboxane B2 in the plasma was quantified using a kit (519031, Cayman Chemical). The amount of thromboxane B2 produced via the addition of ionomycin was designated as 100%, and the concentration of the test compound that inhibits 50% of such reaction was represented by the IC50 value.

Setting [1] is: oral administration 45 minutes before 0.6% acetic acid i.p., 50% inhibition of writhing reactions, read-out: ED50 (mg/kg)[90% confidence limit].

Where two headings read alike, the source gives them in different places.

T2 sequence (P23219 24-599): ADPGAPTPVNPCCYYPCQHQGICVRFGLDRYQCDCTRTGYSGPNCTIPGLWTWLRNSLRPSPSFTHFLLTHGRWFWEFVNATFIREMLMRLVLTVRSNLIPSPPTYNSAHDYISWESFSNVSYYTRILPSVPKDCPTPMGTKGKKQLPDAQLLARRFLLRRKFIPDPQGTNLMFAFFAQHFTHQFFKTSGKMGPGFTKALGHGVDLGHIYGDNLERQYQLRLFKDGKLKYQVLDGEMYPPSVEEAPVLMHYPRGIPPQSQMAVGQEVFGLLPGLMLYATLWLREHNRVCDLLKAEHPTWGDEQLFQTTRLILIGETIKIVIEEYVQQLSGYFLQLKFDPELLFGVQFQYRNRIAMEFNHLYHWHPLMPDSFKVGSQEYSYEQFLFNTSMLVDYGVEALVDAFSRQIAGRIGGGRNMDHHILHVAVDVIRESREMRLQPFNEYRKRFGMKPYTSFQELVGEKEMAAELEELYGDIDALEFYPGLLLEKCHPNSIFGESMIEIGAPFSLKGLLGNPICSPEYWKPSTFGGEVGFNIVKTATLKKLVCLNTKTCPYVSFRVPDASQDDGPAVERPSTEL

Regarding `COC(=O)C1(c2nc(-c3ccc(OC)cc3)c(-c3ccc(OC)cc3)o2)CCN(C(=O)N(C)O)CC1` [Example 14, Methyl 4-(4,5-bis(4-methoxyphenyl)oxazol-2-yl)-1-(N-hydroxy-N-methylcarbamoyl)-4-piperidinecarboxylate], in the experiment with ddY mice (setting [1]), the ED50 worked out at 4.17 mg/kg. For the same compound, the concentration for half-maximal inhibition (IC50) – broadly, the concentration needed to halve the response being measured – at COX-2 is above 10 µM; against COX-1, below 100 nM. Moreover, the “results of the von Frey test” value with ICR mice was “significantly improved”.

Take `COc1ccc(-c2nc(C3CCN(C(=O)N(C)O)CC3)oc2-c2ccc(C)cc2)cc1` [Example 7, 4-(4-(4-Methoxyphenyl)-5-(4-tolyl)oxazol-2-yl)-1-(N-hydroxy-N-methylcarbamoyl)piperidine]: the ED50 in the experiment on ddY mice (setting [1]) was 3.27 mg/kg. In addition, the IC50 against COX-2 was above 10 µM; against COX-1, below 100 nM.

Take `COc1ccc(-c2oc(C3CCN(C(=O)N(C)O)CC3)nc2-c2ccc(Cl)cc2)cc1` [Example 12, 4-(4-(4-Chlorophenyl)-5-(4-methoxyphenyl)oxazol-2-yl)-1-(N-hydroxy-N-methylcarbamoyl)-piperidine]: the ED50 in the experiment on ddY mice (setting [1]) is 2.29 mg/kg. Also, the values for the IC50 at COX-2 and against COX-1 were above 10 µM and below 100 nM, respectively.

Consider `COc1ccc(-c2nc(C3CCN(C(=O)N(C)O)CC3)oc2-c2ccc(OC)cc2)cc1` [Example 1, 4-(4,5-Bis(4-methoxyphenyl)oxazol-2-yl)-1-(N-hydroxy-N-methylcarbamoyl)piperidine], for which the ED50 with ddY mice (Table 4, oral administration, comparison with similar known compound, read-out: ED50 (mg/kg) [90% confidence limit]) amounted to 2.02 mg/kg; in the experiment with ddY mice (setting [1]) it was 2.02 mg/kg. The “activity ratio (analgesic effects)” value in the experiment with ddY mice (oral administration, compared with Reference Example 78 (sulfate)) is “at least 49 times”. The IC50 at COX-2 was above 10 µM; against COX-1 it was below 100 nM.

As for `COc1ccc(-c2oc(C3CCN(C(=O)N(C)O)CC3)nc2-c2ccc(C)cc2)cc1` [Example 4, 4-(5-(4-Methoxyphenyl)-4-(4-tolyl)oxazol-2-yl)-1-(N-hydroxy-N-methylcarbamoyl)piperidine], the ED50 in the experiment with ddY mice (setting [1]) is 4.02 mg/kg. For the same compound, the results for the IC50 against COX-2 and against COX-1 were above 10 µM and below 100 nM, respectively.

As for `COc1ccc(-c2nc(C3(C#N)CCN(C(=O)N(C)O)CC3)oc2-c2ccc(OC)cc2)cc1` [Example 47, 4-(4,5-Bis(4-methoxyphenyl)oxazol-2-yl)-4-cyano-1-(N-hydroxy-N-methylcarbamoyl)piperidine], in the experiment on ddY mice (setting [1]), the ED50 is 3.3 mg/kg. Further, the IC50 is above 10 µM against COX-2 and below 100 nM against COX-1.

With `COc1ccc(-c2nc(C3CCN(C(=O)N(C)O)CC3)oc2-c2ccc(Cl)cc2)cc1` [Example 20, 4-(5-(4-Chlorophenyl)-4-(4-methoxyphenyl)oxazol-2-yl)-1-(N-hydroxy-N-methylcarbamoyl)-piperidine], in the experiment with ddY mice (setting [1]), the ED50 came to 6.45 mg/kg. The IC50 was above 10 µM against COX-2 and below 100 nM on COX-1.

On to `COc1ccc(-c2nc(C3(C#N)CCN(C(=O)N(C)O)CC3)sc2-c2ccc(OC)cc2)cc1` [Example 56, 4-(4,5-Bis(4-methoxyphenyl)thiazol-2-yl)-4-cyano-1-(N-hydroxy-N-methylcarbamoyl)piperidine], for which, in the experiment with ddY mice (setting [1]), the ED50 came out at 4.61 mg/kg. Besides, the concentration for half-maximal inhibition (IC50) against COX-2 is above 10 µM; on COX-1, below 100 nM.

For the compound `COc1ccc(-c2nc(C3CCN(C(=O)N(C)O)CC3)oc2-c2ccc(F)cc2)cc1` [Example 9, 4-(5-(4-Fluorophenyl)-4-(4-methoxyphenyl)oxazol-2-yl)-1-(N-hydroxy-N-methylcarbamoyl)-piperidine], the ED50 in the experiment on ddY mice (setting [1]) worked out at 2.63 mg/kg. The concentration for half-maximal inhibition (IC50) was above 10 µM against COX-2 and below 100 nM against COX-1.

As to `COc1ccc(-n2nc(C3CCN(C(=O)N(C)O)CC3)cc2-c2ccc(C)cc2)cc1` [Example 69, 4-(1-(4-Methoxyphenyl)-5-(4-tolyl)-1H-pyrazol-3-yl)-1-(N-hydroxy-N-methylcarbamoyl)piperidine], the ED50 in the experiment with ddY mice (setting [1]) worked out at 3.19 mg/kg. Further, the IC50 is above 10 µM against COX-2 and below 100 nM on COX-1.

Values taken from patent US20100234395A1, “UREIDE DERIVATIVE AND PHARMACEUTICAL APPLICATION THEREOF” (TORAY INDUSTRIES, INC., priority 2006, published 2010).
